Measured values reported in PubChem BioAssay (NCI).
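Tested at 5 concentrations; 48 h exposure; 96-well plates; endpoints linearly interpolated, else capped at highest concentration. Definition used: TGI = concentration required for complete inhibition of growth.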

Assays:
Test in all cases: inhibition of tumour cell growth, NCI panel, 48 h
786-0 renal = test system: 786-0 renal
A498 renal = test system: A498 renal
A549 NSCLC = test system: A549 NSCLC
ACHN renal = test system: ACHN renal
BT-549 breast = test system: BT-549 breast
CAKI-1 renal = test system: CAKI-1 renal
CCRF-CEM leukemia = test system: CCRF-CEM leukemia
COLO 205 colon = test system: COLO 205 colon
DU-145 prostate = test system: DU-145 prostate
EKVX NSCLC = test system: EKVX NSCLC
HCC-2998 colon = test system: HCC-2998 colon
HCT-116 colon = test system: HCT-116 colon
HCT-15 colon = test system: HCT-15 colon
HL-60(TB) leukemia = test system: HL-60(TB) leukemia
HOP-62 NSCLC = test system: HOP-62 NSCLC
HS 578T breast = test system: HS 578T breast
HT29 colon = test system: HT29 colon
IGROV1 ovarian = test system: IGROV1 ovarian
K-562 leukemia = test system: K-562 leukemia
KM12 colon = test system: KM12 colon
LOX IMVI melanoma = test system: LOX IMVI melanoma
M14 melanoma = test system: M14 melanoma
MALME-3M melanoma = test system: MALME-3M melanoma
MCF7 breast = test system: MCF7 breast
MDA-MB-231 breast = test system: MDA-MB-231 breast
MDA-MB-435 = test system: MDA-MB-435
MDA-N = test system: MDA-N
MOLT-4 leukemia = test system: MOLT-4 leukemia
NCI-H226 lung = test system: NCI-H226 lung
NCI-H23 lung = test system: NCI-H23 lung
NCI-H522 lung = test system: NCI-H522 lung
NCI/ADR-RES ovarian = test system: NCI/ADR-RES ovarian
OVCAR-3 ovarian = test system: OVCAR-3 ovarian
OVCAR-4 ovarian = test system: OVCAR-4 ovarian
OVCAR-5 ovarian = test system: OVCAR-5 ovarian
OVCAR-8 ovarian = test system: OVCAR-8 ovarian
PC-3 prostate = test system: PC-3 prostate
RPMI-8226 leukemia = test system: RPMI-8226 leukemia
RXF 393 renal = test system: RXF 393 renal
SF-268 CNS = test system: SF-268 CNS
SF-295 CNS = test system: SF-295 CNS
SF-539 CNS = test system: SF-539 CNS
SK-MEL-2 melanoma = test system: SK-MEL-2 melanoma
SK-MEL-28 melanoma = test system: SK-MEL-28 melanoma
SK-MEL-5 melanoma = test system: SK-MEL-5 melanoma
SK-OV-3 ovarian = test system: SK-OV-3 ovarian
SN12C renal = test system: SN12C renal
SNB-19 CNS = test system: SNB-19 CNS
SNB-75 CNS = test system: SNB-75 CNS
SR leukemia = test system: SR leukemia
SW-620 colon = test system: SW-620 colon
T-47D breast = test system: T-47D breast
TK-10 renal = test system: TK-10 renal
U251 CNS = test system: U251 CNS
UACC-257 melanoma = test system: UACC-257 melanoma
UACC-62 melanoma = test system: UACC-62 melanoma
UO-31 renal = test system: UO-31 renal

Measured: TGI

Cc1ccc2c(c1)C(=O)c1ccc(C)nc1C2=O
37.6 µM: MDA-MB-435
67.3 µM: NCI/ADR-RES ovarian
58.9 µM: NCI-H23 lung
97.1 µM: HCC-2998 colon
68.5 µM: SF-539 CNS
83.7 µM: OVCAR-4 ovarian
26.7 µM: SK-MEL-5 melanoma
42.1 µM: HCT-116 colon
59.2 µM: SN12C renal
82.1 µM: NCI-H522 lung
31.4 µM: MDA-N
> 100 µM: 786-0 renal | A498 renal | A549 NSCLC | ACHN renal | CAKI-1 renal | CCRF-CEM leukemia | COLO 205 colon | DU-145 prostate | EKVX NSCLC | HL-60(TB) leukemia | HOP-62 NSCLC | HS 578T breast | HT29 colon | K-562 leukemia | KM12 colon | M14 melanoma | MCF7 breast | MDA-MB-231 breast | MOLT-4 leukemia | NCI-H226 lung | OVCAR-3 ovarian | OVCAR-5 ovarian | OVCAR-8 ovarian | PC-3 prostate | RPMI-8226 leukemia | RXF 393 renal | SF-268 CNS | SF-295 CNS | SK-MEL-2 melanoma | SK-MEL-28 melanoma | SK-OV-3 ovarian | SNB-75 CNS | SR leukemia | SW-620 colon | T-47D breast | TK-10 renal | U251 CNS | UO-31 renal
48.9 µM: UACC-257 melanoma | UACC-62 melanoma
52.5 µM: MALME-3M melanoma
92.8 µM: BT-549 breast
83.2 µM: IGROV1 ovarian
63.6 µM: SNB-19 CNS
75.6 µM: LOX IMVI melanoma
39 µM: HCT-15 colon
